Where “and” joins values, the source holds several entries; their conditions need not be identical. Equal entries are not always repeated. Where two headings read alike, the source gives them in different places.
Tests used:
[1] = Direct UV photolytic degradation of single contaminants in deionized water (collimated beam MP Hg lamp, HPLC/MS/MS); format: physicochemical; settings: for UV dose for 90% degradation: polychromatic UV 200-400 nm; for pH dependence of rate constant (k) for photolytic degradation: FIG. 21 and FIG. 23, in words; for Optimal pH for photodegradation: UV direct photolysis
Description: Solutions of tested contaminants were prepared by dissolving one or more contaminant in 150 ml deionized water (DI) at a concentration of 1 mg/l for each contaminant. The solution was then placed into an open 90×50 mm crystallization dish. […] No. 7830-61, from Ace Glass Inc.) housed in a bench scale collimated beam apparatus. […] 0.5 ml samples were removed from the irradiated solution at selected time intervals in order to measure the concentration of the remaining contaminant. Samples were measured in a 1100-Finnigan LCQ HPLC/MS/MS (high performance liquid chromatography/tandem mass spectrometry) apparatus (Agilent), in order to obtain a chromatogram for the sample. The concentration was expressed as the area of the peak observed in the HPLC/MS/MS chromatogram. The degradation kinetics were expressed as a logarithm of the ratio of the concentration (CH) remaining following a dose H of irradiation to initial concentration (C0). Such a logarithm decreased in a linear manner as a function of the dose, as follows: […] The data were fitted using a linear regression approach (with R^2>0.9) resulting in pseudo-first order reaction kinetics which reflect the difference in photodegradation between samples.

[2] = cited from earlier work
[3] = cited from earlier work; remark: listed apart in the source
[4] = 5 mg/L hydrogen peroxide, UV fluence of 50 mJ/cm^2; cited from earlier work
[5] = cited from earlier work; remark: listed apart in the source
[6] = Direct UV photolytic degradation of SMX in synthetic effluent water; format: physicochemical
Description: Solutions of tested contaminants were prepared by dissolving one or more contaminant in 150 ml deionized water (DI) at a concentration of 1 mg/l for each contaminant. The solution was then placed into an open 90×50 mm crystallization dish.
The aqueous solution was stirred continuously for the duration of the experiment, and irradiated using a 0.45 kW polychromatic medium-pressure (MP) Hg vapor lamp (Ace-Hanovia Lamp Cat. No. 7830-61, from Ace Glass Inc.) housed in a bench scale collimated beam apparatus. The polychromatic irradiation was at ultraviolet (UV) wavelengths in a range of 200-400 nm.
0.5 ml samples were removed from the irradiated solution at selected time intervals in order to measure the concentration of the remaining contaminant. Samples were measured in a 1100-Finnigan LCQ HPLC/MS/MS (high performance liquid chromatography/tandem mass spectrometry) apparatus (Agilent), in order to obtain a chromatogram for the sample. The concentration was expressed as the area of the peak observed in the HPLC/MS/MS chromatogram.
The data were fitted using a linear regression approach (with R^2>0.9) resulting in pseudo-first order reaction kinetics which reflect the difference in photodegradation between samples. The constant k (cm^2/mJ), the degradation rate fluence-based constant, was calculated as the negative slope obtained when the degradation was plotted logarithmically as described hereinabove.
The UV dose required for 90% degradation of the tested contaminants was calculated using the obtained value for k, by inserting the appropriate numbers into the above equation: […]
Synthetic wastewater was prepared as described in Seo et al. and diluted with deionized water to obtain a 70% transmittance at 254 nm, which is typical for wastewater effluents treated by UV irradiation.

[7] = UV fluence of 1000 mJ/cm^2, pH 7.5, 254 nm; cited from earlier work
[8] = least favorable tested pH vs optimal pH, deionized water

| SMILES | pH dependence of photolytic degradation ([1]; deionized water, in words) | Reduction in UV dose [1, 8] | UV dose for 90% degradation ([1]; pH 6, deionized water, 1 mg/l) [mJ/cm^2] | UV dose for 90% degradation ([1]; pH 7, deionized water, 1 mg/l) [mJ/cm^2] | pH dependence of rate constant (k) for photolytic degradation ([1]; deionized water) | UV dose for 90% degradation ([1]; pH 5, deionized water, 1 mg/l) [mJ/cm^2] | Relevant pKa [3] | other results |
| --- | --- | --- | --- | --- | --- | --- | --- | --- |
| CC1(C)S[C@@H]2[C@H](NC(=O)[C@H](N)c3ccccc3)C(=O)N2[C@H]1C(=O)O [AMP, ampicillin] | more rapid at a pH of 8 than at a pH of 7 or 6 | 33.4% | 2875 | 2875 |  |  |  | UV dose for 90% degradation ([1]; pH 8, deionized water, 1 mg/l): 1916 mJ/cm2 |
| O=C(O)c1cn(C2CC2)c2cc(N3CCNCC3)c(F)cc2c1=O [CPR, Ciprofloxacin] | more rapid at a pH of 7 than at a pH of 5 | 80.7% | 742 | 403 | higher at a pH of 7 than at a pH of 5 | 2091 |  | Degradation in mixture (30 min, pH 5): 26%; Degradation in mixture (60 min): 96%; Degradation in mixture without change of pH, by extrapolation (60 min, pH 5): 53% |
| CN(C)[C@@H]1C(O)=C(C(N)=O)C(=O)[C@@]2(O)C(O)=C3C(=O)c4c(O)cccc4[C@@](C)(O)[C@H]3[C@H](O)[C@@H]12 [OTC, oxytetracycline] | more rapid at a pH of 7 than at a pH of 5 |  | 2556 | 1643 | higher at a pH of 7 than at a pH of 5 | 5750 |  | Degradation in mixture (30 min, pH 5): 54%; Degradation in mixture (60 min): 91%; Degradation in mixture without change of pH, by extrapolation (60 min, pH 5): 81% |
| CN(C)[C@@H]1C(O)=C(C(N)=O)C(=O)[C@@]2(O)C(O)=C3C(=O)c4c(O)cccc4[C@@](C)(O)[C@H]3C[C@@H]12 [TC, Tetracycline] | more rapid at a pH of 7 than at a pH of 5 |  | 2300 | 1200 | higher at a relatively high pH (pH 7 or 8) | 8000 |  |  |
| Cc1ncc([N+](=O)[O-])n1CCO [metronidazole] |  |  |  |  |  |  | 2.4 | Dependency of direct UV photolysis on solution pH ([2]; pH 3-9.5): no significant dependency; Removal efficiency of direct photolysis ([2]; pH 6): low removal efficiency |
| Oc1nc(Cl)c(Cl)cc1Cl [TCP, 3,5,6-trichloro-2-pyridinol] |  |  |  |  |  |  |  | Degradation of TCP via indirect photolytic process [4]: 50%; Degradation of TCP via direct photolytic process ([5]; UV fluence of 50 mJ/cm^2): approximately 40%; Photodegradation rate, constant maximum value ([5]; pH 5): 6.40×10^−3 cm^2 mJ^−1 |
| COc1cc(Cc2cnc(N)nc2N)cc(OC)c1OC [TMP, Trimethoprim] | more rapid at a pH of 8 than at a pH of 6 | 95% and 95.4% | 23000 | 3833 | higher at a relatively high pH (pH 7 or 8) |  |  | Enhancement of photolysis rate ([1]; changing the pH value from 6 to 8, deionized water): more than 12 fold; UV dose for 90% degradation ([1]; pH 8, deionized water, 1 mg/l): 1770 mJ/cm2 |
| CC(COc1ccc(Oc2ccccc2)cc1)Oc1ccccn1 (stereo not shown) [PRX, pyriproxyfen] |  |  |  |  |  |  |  | pH dependence of photolytic degradation ([1]; 1 mg/l): more rapid at a pH of 5 than at a pH of 3; UV dose for 90% removal ([1]; pH 3, deionized water): 2555.6 mJ/cm^2; UV dose for 90% removal ([1]; pH 4, deionized water): 1352.9 mJ/cm^2; UV dose for 90% removal ([1]; pH 5, deionized water): 1277.8 mJ/cm^2; Reduction in UV dose ([1]; tested pH 3-5, deionized water): 50% |
| Cc1cc(NS(=O)(=O)c2ccc(N)cc2)no1 [SMX, sulfamethoxazole] | more rapid at a pH of 5 than at a pH of 7 | 73.4% | 590 |  | higher at a pH of 5 than at a pH of 7 |  |  | UV dose for 90% degradation ([6]; pH 7, synthetic effluent water): 1643 mJ/cm^2; Reduction in UV dose ([6]; pH 7 vs pH 5, synthetic effluent water): 80.8%; pH dependence of photolytic degradation ([6]; synthetic effluent water, in words): more rapid at a pH of 5 than at a pH of 7; Degradation in mixture (30 min, pH 5): 98.4%; Optimal pH for photodegradation [1]: 5; Irradiation time for 90% degradation ([1]; pH 5, deionized water): approximately 4 minutes; Irradiation time for 90% degradation ([1]; pH 7, deionized water): approximately 12 minutes |
| NC(=O)N1c2ccccc2C=Cc2ccccc21 [CPZ, Carbamazepine] | more rapid at a pH of 8 than at a pH of 6 | 66.6% | 23000 | 11500 |  |  | 13 | UV dose for 90% degradation ([1]; pH 8, deionized water, 1 mg/l): 7667 mJ/cm2 |
| COc1cc(NS(=O)(=O)c2ccc(N)cc2)nc(OC)n1 [SMT, sulfadimethoxine] | more rapid at a pH of 5 than at a pH of 7 | 58.3% | 3300 | 5750 | higher at a relatively low pH (pH 5) | 2400 | 6.08 | Optimal pH for photodegradation [1]: 5 |
| CCn1cc(C(=O)O)c(=O)c2cc(F)c(N3CCNCC3)cc21 [NOR, norfloxacin] | more rapid at a pH of 7 than at a pH of 5 | 84.7% | 2091 | 697 | higher at a relatively high pH (pH 7 or 8) | 4600 | 8.4 |  |
| CCN1CCN(c2cc3c(cc2F)c(=O)c(C(=O)O)cn3C2CC2)CC1 [ENR, enrofloxacin] | more rapid at a pH of 7 than at a pH of 5 | 68.2% | 2300 | 1045 |  | 3286 | 5.94 |  |
| CCc1cccc(C)c1N(C(=O)CCl)C(C)COC (stereo not shown) [metolachlor] |  |  |  |  |  |  |  | Fraction degraded [7]: Approximately half |
| CC1(C)S[C@@H]2[C@H](NC(=O)[C@H](N)c3ccc(O)cc3)C(=O)N2[C@H]1C(=O)O [AMX, Amoxicillin] | more rapid at a pH of 7 or 8 than at a pH of 6 | 36.4% | 3285 | 2090 | higher at a relatively high pH (pH 7 or 8) |  | 6.9 | UV dose for 90% degradation ([1]; pH 8, deionized water, 1 mg/l): 2090 mJ/cm2 |

From patent US20110163045A1, “METHOD AND SYSTEM FOR TREATING CONTAMINATED WATER” (Ramot at Tel-Aviv University Ltd., priority 2008, published 2011)
